In ChEMBL document CHEMBL5212743, “Selectivity Literature for EUbOPEN Chemogenomics Library wave 3” (2023):
Values belong to the compound of their own block, whether it stands above or below them.

How the values were obtained:
[1] = target: T1, Serine/threonine-protein kinase Nek7 (Homo sapiens, UniProt Q8TDX7); assay: Selectivity interaction (KinomeScan (DiscoverX)) EUB0000289c NEK7; conditions: at 1 µM
Target sequence in this assay (Q8TDX7 whole entry, looked up): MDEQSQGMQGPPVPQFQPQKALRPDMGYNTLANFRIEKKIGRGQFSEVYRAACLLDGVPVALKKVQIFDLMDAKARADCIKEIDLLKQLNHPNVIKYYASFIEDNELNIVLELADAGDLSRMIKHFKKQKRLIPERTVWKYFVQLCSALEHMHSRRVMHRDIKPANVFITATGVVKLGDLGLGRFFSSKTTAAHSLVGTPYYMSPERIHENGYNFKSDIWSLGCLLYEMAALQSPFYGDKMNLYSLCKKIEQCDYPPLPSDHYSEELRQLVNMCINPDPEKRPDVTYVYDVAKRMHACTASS

[2] = target: Ephrin type-A receptor 1 (Homo sapiens, UniProt P21709); assay: Selectivity interaction (KinomeScan (DiscoverX, competition-binding assay)) EUB0000289c EPHA1
[3] = target: Ephrin type-A receptor 1 (Homo sapiens) (UniProt P21709); assay: Selectivity interaction (KinomeScan (DiscoverX)) EUB0000289c EPHA1; conditions: at 1 µM
[4] = target: G protein-coupled receptor kinase 3 (Homo sapiens, UniProt P35626); assay: Selectivity interaction (KinomeScan (DiscoverX, competition-binding assay)) EUB0000289c ADRBK2
[5] = target: T2, G protein-coupled receptor kinase 3 (Homo sapiens) (UniProt P35626); assay: Selectivity interaction (KinomeScan (DiscoverX)) EUB0000289c ADRBK2; conditions: at 1 µM
T2 sequence (whole entry): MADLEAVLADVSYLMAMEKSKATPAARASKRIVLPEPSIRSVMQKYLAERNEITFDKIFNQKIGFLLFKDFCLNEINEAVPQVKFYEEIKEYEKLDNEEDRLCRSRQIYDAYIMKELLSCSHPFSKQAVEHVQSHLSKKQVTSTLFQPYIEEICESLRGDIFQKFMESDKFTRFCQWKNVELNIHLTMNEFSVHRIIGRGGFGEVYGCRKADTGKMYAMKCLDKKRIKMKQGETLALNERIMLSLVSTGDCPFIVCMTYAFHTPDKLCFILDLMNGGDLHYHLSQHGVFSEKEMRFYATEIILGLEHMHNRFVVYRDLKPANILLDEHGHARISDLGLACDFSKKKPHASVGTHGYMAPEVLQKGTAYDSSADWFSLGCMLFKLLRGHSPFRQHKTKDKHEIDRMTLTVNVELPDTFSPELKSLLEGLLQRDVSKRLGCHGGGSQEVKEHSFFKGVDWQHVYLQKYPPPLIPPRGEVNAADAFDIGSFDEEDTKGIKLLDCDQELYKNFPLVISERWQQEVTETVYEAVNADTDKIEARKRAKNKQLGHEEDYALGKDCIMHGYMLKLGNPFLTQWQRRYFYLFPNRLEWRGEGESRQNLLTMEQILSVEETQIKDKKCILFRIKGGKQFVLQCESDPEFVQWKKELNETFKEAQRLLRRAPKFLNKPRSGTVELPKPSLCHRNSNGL

[6] = target: Lysosomal Pro-X carboxypeptidase (Homo sapiens) (UniProt P42785); assay: Selectivity interaction (CEREP panel (Eurofins, panel of ion channels, receptors, GPCRs, and enzymes (ligand binding assay))) EUB0000289c PRCP; conditions: at 3 µM
[7] = target: Serine/threonine-protein kinase BRSK2 (Homo sapiens, UniProt Q8IWQ3); assay: Selectivity interaction (KinomeScan (DiscoverX, competition-binding assay)) EUB0000289c BRSK2
[8] = target: T3, Histamine H1 receptor (Homo sapiens, UniProt P35367); assay: Selectivity interaction (GPCR panel (PDSP screen)) EUB0000289c HRH1
[9] = target: T1, Serine/threonine-protein kinase Nek7; assay: Selectivity interaction (KinomeScan (DiscoverX, competition-binding assay)) EUB0000289c NEK7
Target sequence in this assay (Q8TDX7 whole entry): as the sequence (Q8TDX7 whole entry, looked up) above

[10] = target: Serine/threonine-protein kinase BRSK2 (Homo sapiens) (UniProt Q8IWQ3); assay: Selectivity interaction (KinomeScan (DiscoverX)) EUB0000289c BRSK2; conditions: at 1 µM
[11] = target: Tyrosine-protein kinase ZAP-70 (Homo sapiens) (UniProt P43403); assay: Selectivity interaction (KinomeScan (DiscoverX)) EUB0000547a ZAP70; conditions: at 1 µM
[12] = target: T4, Mitogen-activated protein kinase kinase kinase 13 (Homo sapiens) (UniProt O43283); assay: Selectivity interaction (KinomeScan (DiscoverX)) EUB0000547a MAP3K13; conditions: at 1 µM
T4 sequence (whole entry): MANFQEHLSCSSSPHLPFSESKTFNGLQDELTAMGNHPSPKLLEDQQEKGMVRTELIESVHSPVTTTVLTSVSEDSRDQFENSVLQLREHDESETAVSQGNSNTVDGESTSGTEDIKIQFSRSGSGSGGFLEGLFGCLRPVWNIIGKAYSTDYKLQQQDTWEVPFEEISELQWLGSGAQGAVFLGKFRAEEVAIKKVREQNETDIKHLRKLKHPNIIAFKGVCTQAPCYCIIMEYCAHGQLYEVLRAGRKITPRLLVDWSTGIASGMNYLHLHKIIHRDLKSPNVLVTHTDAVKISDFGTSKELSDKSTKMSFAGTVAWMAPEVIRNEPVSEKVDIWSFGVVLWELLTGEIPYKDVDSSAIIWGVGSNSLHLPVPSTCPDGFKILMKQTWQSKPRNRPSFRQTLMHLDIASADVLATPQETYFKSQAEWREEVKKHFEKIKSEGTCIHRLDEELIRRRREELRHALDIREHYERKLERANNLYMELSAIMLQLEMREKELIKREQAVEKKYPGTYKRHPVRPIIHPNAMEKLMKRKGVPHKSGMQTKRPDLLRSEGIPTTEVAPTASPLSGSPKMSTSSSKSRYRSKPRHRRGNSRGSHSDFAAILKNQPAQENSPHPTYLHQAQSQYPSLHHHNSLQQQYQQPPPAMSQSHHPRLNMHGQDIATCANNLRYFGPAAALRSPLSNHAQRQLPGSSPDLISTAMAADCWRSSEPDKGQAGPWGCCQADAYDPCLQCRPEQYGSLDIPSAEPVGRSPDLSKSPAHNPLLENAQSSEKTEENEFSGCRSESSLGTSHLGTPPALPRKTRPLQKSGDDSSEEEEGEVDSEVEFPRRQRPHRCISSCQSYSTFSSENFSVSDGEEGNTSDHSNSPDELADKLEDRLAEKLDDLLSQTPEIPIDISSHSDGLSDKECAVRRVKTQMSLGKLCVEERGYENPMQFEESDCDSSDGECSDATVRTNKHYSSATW

[13] = target: T5, Gamma-aminobutyric acid receptor subunit alpha-1 (Homo sapiens, UniProt P14867); assay: Selectivity interaction (GPCR panel (PDSP screen)) EUB0000547a GABRA1
T5 sequence (P14867 whole entry): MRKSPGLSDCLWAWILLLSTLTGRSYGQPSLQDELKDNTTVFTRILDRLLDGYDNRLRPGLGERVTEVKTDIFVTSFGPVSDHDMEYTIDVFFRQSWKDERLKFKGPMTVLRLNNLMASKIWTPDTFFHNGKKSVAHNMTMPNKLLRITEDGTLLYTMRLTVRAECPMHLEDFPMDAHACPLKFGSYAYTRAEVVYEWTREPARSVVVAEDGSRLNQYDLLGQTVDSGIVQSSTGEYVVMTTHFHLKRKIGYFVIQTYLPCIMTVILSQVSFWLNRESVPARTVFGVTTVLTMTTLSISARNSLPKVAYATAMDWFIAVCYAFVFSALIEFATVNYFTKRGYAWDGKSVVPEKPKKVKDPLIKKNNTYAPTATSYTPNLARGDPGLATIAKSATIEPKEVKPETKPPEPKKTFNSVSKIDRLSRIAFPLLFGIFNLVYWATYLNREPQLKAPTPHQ

[14] = target: Sigma non-opioid intracellular receptor 1 (Homo sapiens, UniProt Q99720); assay: Selectivity interaction (GPCR panel (PDSP screen)) EUB0000289bCl SIGMAR1
[15] = target: T6, Adenosine receptor A3 (Homo sapiens) (UniProt P0DMS8); assay: Selectivity interaction (CEREP panel (Eurofins, binding assay)) EUB0000544a ADORA3; conditions: at 10 µM
T6 sequence (whole entry): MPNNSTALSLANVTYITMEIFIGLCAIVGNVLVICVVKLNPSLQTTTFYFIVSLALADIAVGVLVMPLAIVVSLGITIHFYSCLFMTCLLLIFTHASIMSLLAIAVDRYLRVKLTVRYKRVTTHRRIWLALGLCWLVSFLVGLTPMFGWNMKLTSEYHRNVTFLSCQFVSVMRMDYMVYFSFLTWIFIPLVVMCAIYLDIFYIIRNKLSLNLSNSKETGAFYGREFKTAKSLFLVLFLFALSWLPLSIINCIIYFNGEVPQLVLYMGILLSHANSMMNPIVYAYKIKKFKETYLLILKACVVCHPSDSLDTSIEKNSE

[16] = target: Translocator protein (Homo sapiens) (UniProt P30536); assay: Selectivity interaction (CEREP panel (Eurofins, binding assay)) EUB0000544a TSPO; conditions: at 10 µM
[17] = target: T7, Homeodomain-interacting protein kinase 4 (Homo sapiens) (UniProt Q8NE63); assay: Selectivity interaction (KinomeScan (DiscoverX)) EUB0000544a HIPK4; conditions: at 1 µM
T7 sequence (whole entry): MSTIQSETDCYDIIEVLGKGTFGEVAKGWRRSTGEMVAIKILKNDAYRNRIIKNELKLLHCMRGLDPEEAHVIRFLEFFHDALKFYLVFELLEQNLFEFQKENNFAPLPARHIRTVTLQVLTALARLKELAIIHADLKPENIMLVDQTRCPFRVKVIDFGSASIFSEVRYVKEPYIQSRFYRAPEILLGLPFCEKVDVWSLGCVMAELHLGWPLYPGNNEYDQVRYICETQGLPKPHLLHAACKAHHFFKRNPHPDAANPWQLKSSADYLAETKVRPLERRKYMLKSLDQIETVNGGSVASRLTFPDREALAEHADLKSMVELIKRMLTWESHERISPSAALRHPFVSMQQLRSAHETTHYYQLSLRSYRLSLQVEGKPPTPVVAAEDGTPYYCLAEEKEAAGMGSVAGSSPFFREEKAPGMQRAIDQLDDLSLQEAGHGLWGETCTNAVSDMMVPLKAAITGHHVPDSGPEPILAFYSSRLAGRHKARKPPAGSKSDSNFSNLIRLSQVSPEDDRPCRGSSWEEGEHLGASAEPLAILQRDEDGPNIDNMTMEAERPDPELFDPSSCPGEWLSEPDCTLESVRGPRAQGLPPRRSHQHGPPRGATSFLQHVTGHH

[18] = target: T5, Gamma-aminobutyric acid receptor subunit alpha-1; assay: Selectivity interaction (GPCR panel (PDSP screen)) EUB0000544a GABRA1
[19] = target: T6, Adenosine receptor A3 (Homo sapiens); assay: Selectivity interaction (CEREP panel (Eurofins, enzymes and uptake assays)) EUB0000544a ADORA3; conditions: at 10 µM
[20] = target: T8, Alpha-2B adrenergic receptor (Homo sapiens) (UniProt P18089); assay: Selectivity interaction (CEREP panel (Eurofins, binding assay)) EUB0000544a ADRA2B; conditions: at 10 µM
T8 sequence (whole entry): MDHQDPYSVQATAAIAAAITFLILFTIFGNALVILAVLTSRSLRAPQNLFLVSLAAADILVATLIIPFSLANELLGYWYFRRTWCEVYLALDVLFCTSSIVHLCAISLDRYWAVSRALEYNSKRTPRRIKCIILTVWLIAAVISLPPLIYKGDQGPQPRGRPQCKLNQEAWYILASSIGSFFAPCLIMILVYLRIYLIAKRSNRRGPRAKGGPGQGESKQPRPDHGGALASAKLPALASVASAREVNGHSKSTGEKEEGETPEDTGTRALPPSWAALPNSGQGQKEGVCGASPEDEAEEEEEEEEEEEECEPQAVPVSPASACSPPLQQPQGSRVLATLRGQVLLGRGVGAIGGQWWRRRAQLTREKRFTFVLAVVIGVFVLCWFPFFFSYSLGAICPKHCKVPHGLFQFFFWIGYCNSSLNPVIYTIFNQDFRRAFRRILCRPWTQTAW

[21] = target: T8, Alpha-2B adrenergic receptor (Homo sapiens); assay: Selectivity interaction (CEREP panel (Eurofins, enzymes and uptake assays)) EUB0000544a ADRA2B; conditions: at 10 µM
[22] = target: Dual specificity protein kinase CLK4 (Homo sapiens) (UniProt Q9HAZ1); assay: Selectivity interaction (KinomeScan (DiscoverX)) EUB0000348aPTSA CLK4; conditions: at 1 µM
[23] = target: T4, Mitogen-activated protein kinase kinase kinase 13 (Homo sapiens); assay: Selectivity interaction (KinomeScan (DiscoverX)) EUB0000348aPTSA MAP3K13; conditions: at 1 µM
[24] = target: Endothelin receptor type B (Homo sapiens) (UniProt P24530); conditions: at 10 µM
[25] = target: Delta-type opioid receptor (Homo sapiens) (UniProt P41143); assay: Selectivity interaction (CEREP panel (Eurofins, receptors, ion channels, and other enzymes)) EUB0000348aPTSA OPRD1; conditions: at 10 µM
[26] = target: Cyclin-dependent kinase 5 (Homo sapiens) (UniProt Q00535); assay: Selectivity interaction (KinomeScan (DiscoverX)) EUB0000348aPTSA CDK5; conditions: at 1 µM
[27] = target: T3, Histamine H1 receptor; assay: (§1) Selectivity interaction (GPCR panel (PDSP screen)) EUB0000348aPTSA HRH1
[28] = target: T3, Histamine H1 receptor; assay: as §1; conditions: at 10 µM

T3 sequence (P35367 whole entry): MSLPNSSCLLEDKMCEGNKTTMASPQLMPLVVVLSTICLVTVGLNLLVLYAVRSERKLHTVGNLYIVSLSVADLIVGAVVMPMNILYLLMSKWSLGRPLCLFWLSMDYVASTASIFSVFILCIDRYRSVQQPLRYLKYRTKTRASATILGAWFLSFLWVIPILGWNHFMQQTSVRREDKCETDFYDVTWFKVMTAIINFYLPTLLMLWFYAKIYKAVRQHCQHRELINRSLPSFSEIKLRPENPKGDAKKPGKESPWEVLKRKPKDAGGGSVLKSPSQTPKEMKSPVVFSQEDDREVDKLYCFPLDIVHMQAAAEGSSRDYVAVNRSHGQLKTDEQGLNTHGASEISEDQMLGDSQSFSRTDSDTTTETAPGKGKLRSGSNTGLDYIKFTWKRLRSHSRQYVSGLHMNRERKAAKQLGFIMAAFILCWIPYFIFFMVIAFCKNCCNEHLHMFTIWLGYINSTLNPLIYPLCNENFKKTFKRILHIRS
Chain of Dual specificity protein kinase CLK4 (Homo sapiens) (Q9HAZ1 whole entry, looked up): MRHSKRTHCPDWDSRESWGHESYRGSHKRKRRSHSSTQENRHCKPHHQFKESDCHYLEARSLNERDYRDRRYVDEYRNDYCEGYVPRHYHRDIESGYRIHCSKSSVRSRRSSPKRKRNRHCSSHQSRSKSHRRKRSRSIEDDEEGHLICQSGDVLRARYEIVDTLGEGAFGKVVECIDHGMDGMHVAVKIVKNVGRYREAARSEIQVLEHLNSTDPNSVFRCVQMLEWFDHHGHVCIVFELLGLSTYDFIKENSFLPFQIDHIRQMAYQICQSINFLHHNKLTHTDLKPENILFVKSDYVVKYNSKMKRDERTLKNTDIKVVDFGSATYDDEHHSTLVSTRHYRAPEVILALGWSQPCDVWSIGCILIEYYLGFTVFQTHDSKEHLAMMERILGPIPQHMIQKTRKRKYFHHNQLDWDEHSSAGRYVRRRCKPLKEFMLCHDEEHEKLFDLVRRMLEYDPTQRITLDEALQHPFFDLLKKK
Chain of Translocator protein (Homo sapiens) (P30536 whole entry): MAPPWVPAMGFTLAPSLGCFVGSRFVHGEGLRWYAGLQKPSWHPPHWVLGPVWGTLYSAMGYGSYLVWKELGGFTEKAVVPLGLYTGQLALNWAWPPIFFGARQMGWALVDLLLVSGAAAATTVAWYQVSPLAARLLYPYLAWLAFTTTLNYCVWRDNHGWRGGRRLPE
Chain of Endothelin receptor type B (Homo sapiens) (P24530 whole entry): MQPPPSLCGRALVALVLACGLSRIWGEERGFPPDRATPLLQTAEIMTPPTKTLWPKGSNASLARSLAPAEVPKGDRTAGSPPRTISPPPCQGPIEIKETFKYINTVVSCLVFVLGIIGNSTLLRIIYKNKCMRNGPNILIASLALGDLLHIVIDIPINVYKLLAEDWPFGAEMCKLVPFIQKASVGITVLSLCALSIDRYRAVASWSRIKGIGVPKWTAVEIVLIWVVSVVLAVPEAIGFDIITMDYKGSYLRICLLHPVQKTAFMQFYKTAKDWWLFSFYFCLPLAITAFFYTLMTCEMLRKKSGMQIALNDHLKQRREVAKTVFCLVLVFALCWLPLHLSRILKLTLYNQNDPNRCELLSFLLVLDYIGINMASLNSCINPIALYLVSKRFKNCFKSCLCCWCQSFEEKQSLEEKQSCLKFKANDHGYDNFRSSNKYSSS
Chain of Tyrosine-protein kinase ZAP-70 (Homo sapiens) (P43403 whole entry): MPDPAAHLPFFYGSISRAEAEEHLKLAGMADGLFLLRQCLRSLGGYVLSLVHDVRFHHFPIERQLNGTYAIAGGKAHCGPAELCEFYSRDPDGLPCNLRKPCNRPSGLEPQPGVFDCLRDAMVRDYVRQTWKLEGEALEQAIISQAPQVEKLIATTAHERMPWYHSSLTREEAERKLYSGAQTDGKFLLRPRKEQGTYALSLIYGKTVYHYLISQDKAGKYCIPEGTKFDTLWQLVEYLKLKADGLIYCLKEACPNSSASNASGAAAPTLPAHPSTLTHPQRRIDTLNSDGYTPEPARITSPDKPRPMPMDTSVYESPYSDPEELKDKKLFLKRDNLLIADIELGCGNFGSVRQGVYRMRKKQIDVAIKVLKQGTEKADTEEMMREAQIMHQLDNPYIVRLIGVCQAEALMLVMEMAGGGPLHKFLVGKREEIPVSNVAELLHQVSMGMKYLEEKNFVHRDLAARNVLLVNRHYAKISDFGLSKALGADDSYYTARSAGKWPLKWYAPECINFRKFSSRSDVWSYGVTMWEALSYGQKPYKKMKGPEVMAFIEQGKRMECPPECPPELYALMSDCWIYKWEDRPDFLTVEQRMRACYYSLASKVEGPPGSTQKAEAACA
Chain of Lysosomal Pro-X carboxypeptidase (Homo sapiens) (P42785 whole entry): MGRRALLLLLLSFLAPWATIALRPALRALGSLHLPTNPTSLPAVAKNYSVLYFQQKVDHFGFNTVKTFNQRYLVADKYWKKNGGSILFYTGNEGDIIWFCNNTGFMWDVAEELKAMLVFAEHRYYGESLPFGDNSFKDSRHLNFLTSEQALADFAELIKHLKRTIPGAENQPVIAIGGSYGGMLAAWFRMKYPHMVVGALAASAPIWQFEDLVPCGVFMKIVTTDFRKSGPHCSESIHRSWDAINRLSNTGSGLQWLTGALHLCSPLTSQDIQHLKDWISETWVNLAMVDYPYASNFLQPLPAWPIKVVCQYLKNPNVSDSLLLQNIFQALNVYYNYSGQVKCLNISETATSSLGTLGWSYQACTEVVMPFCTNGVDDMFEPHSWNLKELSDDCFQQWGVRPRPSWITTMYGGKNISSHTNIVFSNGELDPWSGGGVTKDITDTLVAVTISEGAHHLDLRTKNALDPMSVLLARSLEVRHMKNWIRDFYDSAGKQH
Chain of Delta-type opioid receptor (Homo sapiens) (P41143 whole entry): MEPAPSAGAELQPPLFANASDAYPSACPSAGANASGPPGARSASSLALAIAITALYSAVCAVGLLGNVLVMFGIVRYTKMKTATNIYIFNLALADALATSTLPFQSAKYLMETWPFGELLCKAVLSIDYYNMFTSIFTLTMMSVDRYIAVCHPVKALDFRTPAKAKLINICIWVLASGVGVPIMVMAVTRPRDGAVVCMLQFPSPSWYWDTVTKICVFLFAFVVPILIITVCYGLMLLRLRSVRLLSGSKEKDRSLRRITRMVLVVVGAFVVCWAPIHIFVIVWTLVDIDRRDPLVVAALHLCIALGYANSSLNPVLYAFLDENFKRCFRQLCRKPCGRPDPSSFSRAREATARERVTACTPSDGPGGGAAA
Chain of Serine/threonine-protein kinase BRSK2 (Q8IWQ3 whole entry): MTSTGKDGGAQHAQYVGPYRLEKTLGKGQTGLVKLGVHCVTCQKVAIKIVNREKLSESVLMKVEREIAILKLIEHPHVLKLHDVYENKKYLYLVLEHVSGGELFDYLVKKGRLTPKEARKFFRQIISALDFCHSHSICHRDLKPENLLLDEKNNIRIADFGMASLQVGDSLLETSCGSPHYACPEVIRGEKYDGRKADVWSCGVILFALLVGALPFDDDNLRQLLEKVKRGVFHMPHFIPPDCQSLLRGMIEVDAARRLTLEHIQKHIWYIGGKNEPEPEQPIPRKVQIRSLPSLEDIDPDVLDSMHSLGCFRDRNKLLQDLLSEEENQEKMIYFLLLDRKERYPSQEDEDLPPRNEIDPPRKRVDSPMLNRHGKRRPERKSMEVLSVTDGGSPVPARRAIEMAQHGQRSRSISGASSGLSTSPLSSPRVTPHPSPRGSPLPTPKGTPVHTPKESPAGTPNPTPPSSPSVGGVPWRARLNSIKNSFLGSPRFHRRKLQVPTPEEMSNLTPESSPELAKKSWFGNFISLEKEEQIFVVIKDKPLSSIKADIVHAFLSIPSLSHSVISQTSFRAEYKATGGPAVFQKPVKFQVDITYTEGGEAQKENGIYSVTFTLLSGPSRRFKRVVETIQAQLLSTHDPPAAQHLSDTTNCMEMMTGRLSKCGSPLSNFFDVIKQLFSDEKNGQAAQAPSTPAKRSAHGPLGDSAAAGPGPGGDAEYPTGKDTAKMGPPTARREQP
Chain of Serine/threonine-protein kinase BRSK2 (Homo sapiens) (Q8IWQ3 whole entry): as above
Chain of Sigma non-opioid intracellular receptor 1 (Q99720 whole entry): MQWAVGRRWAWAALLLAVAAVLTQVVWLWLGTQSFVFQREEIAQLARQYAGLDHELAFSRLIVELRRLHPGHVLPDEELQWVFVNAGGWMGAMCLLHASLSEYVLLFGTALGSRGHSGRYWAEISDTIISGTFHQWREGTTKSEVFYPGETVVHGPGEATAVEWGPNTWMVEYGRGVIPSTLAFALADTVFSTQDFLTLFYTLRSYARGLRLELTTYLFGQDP
Chain of Cyclin-dependent kinase 5 (Homo sapiens) (Q00535 whole entry, looked up): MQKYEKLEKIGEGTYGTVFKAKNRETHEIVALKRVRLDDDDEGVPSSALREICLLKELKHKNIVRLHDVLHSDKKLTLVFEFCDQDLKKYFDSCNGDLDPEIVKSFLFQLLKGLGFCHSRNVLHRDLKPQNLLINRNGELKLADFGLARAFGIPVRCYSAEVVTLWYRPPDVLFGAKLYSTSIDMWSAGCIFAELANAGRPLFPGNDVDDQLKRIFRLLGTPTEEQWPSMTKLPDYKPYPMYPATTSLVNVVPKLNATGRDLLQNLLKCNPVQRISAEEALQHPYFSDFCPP

Compound: Cn1cncc1[C@](O)(COc1ccc(C#N)cc1-c1ccc(OC(F)(F)F)cc1)c1ccc(C#N)cc1 [ABT-100]
% of control [1]: 46% | Kd [2]: > 10 µM | % of control [3]: 38% | Kd [4]: > 10 µM | % of control [5]: 48% | % of inhibition [6]: 97% | Kd [7]: > 10 µM | Ki [8]: > 10 µM | Kd [9]: > 10 µM | % of control [10]: 48%

Compound: CCC(=N\O)/C(C)=C/c1ccc(F)c(C)c1 [A-226]
% of control [11]: 38% | % of control [12]: 23% | Ki [13]: 3.69 µM

Compound: CCCCN(CCCC)C(=O)CN1C[C@@H](c2cc(OC)c3c(c2)OCO3)[C@H](C(=O)O)[C@H]1CC(C)(C)CCC
Ki [14]: 0.289 µM

Continued, values first:

% of inhibition [15]: 63.9% | % of inhibition [16]: 95.5% | % of control [17]: 51% | Ki [18]: 0.0196 µM | % of inhibition [19]: 63.9% | % of inhibition [20]: 63.5% | % of inhibition [21]: 63.5%
Compound: COc1ccc2c(c1)O[C@@H](c1ccc(OC)c(OC)c1)C[C@H]2NC(=O)C1(c2ccc3c(c2)OC(F)(F)O3)CC1 [A-1596586]

% of control [22]: 0% | % of control [23]: 0% | % of inhibition [24]: 56% | % of inhibition [25]: 62% | % of control [26]: 0% | Ki [27]: > 10 µM | % of inhibition [28]: 54%
Compound: CCCCN(CCCC)C(=O)CN1C[C@H](c2cc(OC)c3c(c2)OCO3)[C@@H](C(=O)O)[C@@H]1CC(C)(C)CCC
